Assay [1] deals with T1, Carnitine O-palmitoyltransferase 2, mitochondrial (Homo sapiens, UniProt P23786).
T1 sequence (P23786 whole entry): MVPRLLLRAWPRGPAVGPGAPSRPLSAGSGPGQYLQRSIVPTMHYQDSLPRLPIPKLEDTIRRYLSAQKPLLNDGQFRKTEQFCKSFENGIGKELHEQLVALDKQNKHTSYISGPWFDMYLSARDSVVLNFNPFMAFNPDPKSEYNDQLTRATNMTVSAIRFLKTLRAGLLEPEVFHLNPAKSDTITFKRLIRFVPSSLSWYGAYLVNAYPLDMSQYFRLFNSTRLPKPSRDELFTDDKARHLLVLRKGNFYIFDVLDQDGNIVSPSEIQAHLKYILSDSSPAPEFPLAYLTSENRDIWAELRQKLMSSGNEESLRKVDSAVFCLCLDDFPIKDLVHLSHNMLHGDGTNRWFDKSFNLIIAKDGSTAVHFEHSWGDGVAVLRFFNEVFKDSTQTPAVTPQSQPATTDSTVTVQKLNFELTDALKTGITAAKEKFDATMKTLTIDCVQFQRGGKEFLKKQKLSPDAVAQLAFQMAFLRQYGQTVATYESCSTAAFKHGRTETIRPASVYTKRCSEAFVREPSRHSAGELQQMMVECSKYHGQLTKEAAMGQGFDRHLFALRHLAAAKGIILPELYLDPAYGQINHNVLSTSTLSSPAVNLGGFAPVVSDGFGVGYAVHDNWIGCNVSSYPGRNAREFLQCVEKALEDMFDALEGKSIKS
The assay can be described thus: Inhibitory potency against Carnitine Palmitoyltransferase (CPT-II); Range = 32-235 uM.

Assay [2] addresses T2, Peroxisomal carnitine O-octanoyltransferase (Homo sapiens, UniProt Q9UKG9).
T2 sequence (Q9UKG9 whole entry): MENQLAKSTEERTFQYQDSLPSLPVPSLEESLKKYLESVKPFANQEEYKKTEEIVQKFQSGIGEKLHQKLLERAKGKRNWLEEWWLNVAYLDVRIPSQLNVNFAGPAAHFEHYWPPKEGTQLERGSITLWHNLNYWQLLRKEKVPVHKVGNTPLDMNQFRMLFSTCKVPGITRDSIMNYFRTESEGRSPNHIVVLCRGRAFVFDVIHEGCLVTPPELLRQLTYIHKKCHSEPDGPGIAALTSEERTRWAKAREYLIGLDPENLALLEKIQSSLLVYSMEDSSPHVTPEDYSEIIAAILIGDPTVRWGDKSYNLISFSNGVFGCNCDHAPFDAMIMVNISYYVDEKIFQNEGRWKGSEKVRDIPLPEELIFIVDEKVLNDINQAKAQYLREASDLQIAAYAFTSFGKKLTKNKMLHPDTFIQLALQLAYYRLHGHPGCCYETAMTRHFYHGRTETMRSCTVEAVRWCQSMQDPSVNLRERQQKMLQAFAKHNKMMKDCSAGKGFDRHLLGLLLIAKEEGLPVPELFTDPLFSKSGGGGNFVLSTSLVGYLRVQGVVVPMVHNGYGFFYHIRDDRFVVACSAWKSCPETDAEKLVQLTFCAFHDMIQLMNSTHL
As to the kind of experiment: Inhibitory potency against carnitine octanoyltransferase (COT); Range = 1300-4000 uM.

As usually defined, the IC50 is the midpoint of a concentration-inhibition curve. Low values mean inhibition by little substance, high ones a need for much substance.

For `CCCCCCCCCCCCCCCC[C@@]1(O)C[N+](C)(C)CCO1`, the IC50 worked out at 235 µM in assay [1] and 4000 µM in assay [2].

For the origin of these results see ChEMBL document CHEMBL1127274, “Evaluation of (2S,4S)/(2R,4R) and (2S,4R)/(2R,4S) 6,6-N,N-dimethyl-2-methyl-2-oxo-1,3-dioxa-4-hexadecyl-6,aza-2-phosphacyclooctane bromide as inhibitors for protein kinase C, carnitine octanoyltransferase, and carnitine palmitoyltransferase” (Bioorg Med Chem Lett, 1994).
